Measurements reported in patent EP1100821B1, “ANTI-INFLAMMATORY COMPOUNDS DERIVED FROM LIPOCORTIN-1” (priority 1998, dated 2006).
No end group written: not given here.

Legend:
[1] = system: A549 cell line; conditions: in vitro A549 model; previous publications (Croxtall et al., 1993, 1998); cited from earlier work
[2] = system: PMN migration; assay type: in vivo; conditions: peptide s.c. 30 min prior to 1 mg zymosan into 6-day-old air-pouches; PMN counted 4 h after zymosan; n=15; P<0.01
Experimental: Male Swiss Albino mice (20-22 g body weight) were purchased from Interfauna (CFLP strain; Huntingdon, Cambridgeshire, UK) and maintained on a standard chow pellet diet with tap water ad libitum. Animals were used at least one week after arrival.
Air-pouches were formed on the back of the mice by subcutaneous (s.c.) injection of 2.5 ml of air on day 2 and day 5. Three days after the last air-injection (6-day-old air-pouches) 1 mg of zymosan (in 0.5 ml of sterile saline) was injected locally (Perretti et al., 1996). Zymosan was previously boiled for 30 min in phosphate buffered solution (PBS), extensively washed in the same medium and stored at -20°C prior to use.
Four hours after the local injection of zymosan, mice were killed by CO2 exposure and the air-pouches washed with 2 ml of PBS containing ethylenediaminetetracetic acid sodium salt (EDTA; 3 mM) and heparin (25 U/ml). […] The number of PMN was determined, using a Neubauer haematocytometer, after staining (1:10 dilution) with Turk's solution (crystal violet 0.01 % w/v in acetic acid 3% v/v).
Control mice were treated with sterile PBS (100 µl s.c.).

Substance | inhibitory effect on A549 cell function [1] | Approximate ED50s (inhibition of PMN migration) [2] [nmol]
EQEYVQTV [LC118-25] | significant inhibitory activity | 
Ac-AMVSEFLKQAW [LC12-12, Ac-AMVSEFLKQAW] |  | ~110
LC11-12: lipocortin 1 N-terminal fragment, residues 1-12, from previous publications (MAMVSEFLKQAW; UniProt P04083 1-12, looked up, fragment) | inactive | 
